Test results taken from PubChem BioAssay (NCI).
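Exposure lasted 48 hours, with cells grown in 96-well plates and compounds tested at five concentrations. At the TGI there is no net growth.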

Tests used:
Assay in all cases: inhibition of tumour cell growth, NCI panel, 48 h
KM12 colon = system: KM12 colon
SR leukemia = system: SR leukemia
OVCAR-8 ovarian = system: OVCAR-8 ovarian
TK-10 renal = system: TK-10 renal
U251 CNS = system: U251 CNS
HOP-92 NSCLC = system: HOP-92 NSCLC
SNB-75 CNS = system: SNB-75 CNS
SK-OV-3 ovarian = system: SK-OV-3 ovarian
NCI-H460 lung = system: NCI-H460 lung
HL-60(TB) leukemia = system: HL-60(TB) leukemia
CCRF-CEM leukemia = system: CCRF-CEM leukemia
CAKI-1 renal = system: CAKI-1 renal
HCC-2998 colon = system: HCC-2998 colon
HCT-116 colon = system: HCT-116 colon
RXF 393 renal = system: RXF 393 renal
MDA-MB-231 breast = system: MDA-MB-231 breast
OVCAR-3 ovarian = system: OVCAR-3 ovarian
SW-620 colon = system: SW-620 colon
SF-539 CNS = system: SF-539 CNS
EKVX NSCLC = system: EKVX NSCLC
DU-145 prostate = system: DU-145 prostate
LOX IMVI melanoma = system: LOX IMVI melanoma
SK-MEL-5 melanoma = system: SK-MEL-5 melanoma
PC-3 prostate = system: PC-3 prostate
T-47D breast = system: T-47D breast
MDA-MB-435 = system: MDA-MB-435
OVCAR-4 ovarian = system: OVCAR-4 ovarian
M14 melanoma = system: M14 melanoma
SNB-19 CNS = system: SNB-19 CNS
HCT-15 colon = system: HCT-15 colon
SN12C renal = system: SN12C renal
NCI-H522 lung = system: NCI-H522 lung
COLO 205 colon = system: COLO 205 colon
NCI/ADR-RES ovarian = system: NCI/ADR-RES ovarian
ACHN renal = system: ACHN renal
UACC-62 melanoma = system: UACC-62 melanoma
K-562 leukemia = system: K-562 leukemia
UACC-257 melanoma = system: UACC-257 melanoma
OVCAR-5 ovarian = system: OVCAR-5 ovarian
786-0 renal = system: 786-0 renal
UO-31 renal = system: UO-31 renal
A498 renal = system: A498 renal
BT-549 breast = system: BT-549 breast
MOLT-4 leukemia = system: MOLT-4 leukemia
MCF7 breast = system: MCF7 breast
SF-268 CNS = system: SF-268 CNS
HS 578T breast = system: HS 578T breast
SF-295 CNS = system: SF-295 CNS
NCI-H226 lung = system: NCI-H226 lung
HOP-62 NSCLC = system: HOP-62 NSCLC
IGROV1 ovarian = system: IGROV1 ovarian
SK-MEL-2 melanoma = system: SK-MEL-2 melanoma
NCI-H23 lung = system: NCI-H23 lung
SK-MEL-28 melanoma = system: SK-MEL-28 melanoma
RPMI-8226 leukemia = system: RPMI-8226 leukemia
HT29 colon = system: HT29 colon
A549 NSCLC = system: A549 NSCLC
MALME-3M melanoma = system: MALME-3M melanoma

Which TGI (KM12 colon) does the source give for `CC(=O)OC[C@@]12Cc3ccc(C)c(O)c3[C@]1(C)[C@@H](OC(C)=O)[C@]1(O)[C@H]([C@@H](OC(=O)c3ccccc3)[C@@H](C)[C@H]1OC(C)=O)[C@H]2OC(C)=O` here?
Its TGI is over 50 µM.

And the TGI (SR leukemia)?
Its TGI is over 50 µM.

What about the TGI (OVCAR-8 ovarian) of the same molecule?
Its TGI is over 50 µM.

And the TGI (TK-10 renal)?
Its TGI is over 50 µM.

What about the TGI (U251 CNS) of the same molecule?
The TGI was over 50 µM.

What about the TGI (HOP-92 NSCLC) of the same molecule?
Its TGI is over 50 µM.

What about the TGI (SNB-75 CNS) of the same molecule?
Its TGI is over 50 µM.

And the TGI (SK-OV-3 ovarian)?
Its TGI is over 50 µM.

What about the TGI (NCI-H460 lung) of the same molecule?
Its TGI is over 50 µM.

What about the TGI (HL-60(TB) leukemia) of the same molecule?
The TGI was over 50 µM.

What about the TGI (CCRF-CEM leukemia) of the same molecule?
Its TGI is over 50 µM.

And the TGI (CAKI-1 renal)?
The TGI was over 50 µM.

And the TGI (HCC-2998 colon)?
Its TGI is over 50 µM.

And the TGI (HCT-116 colon)?
The TGI was over 50 µM.

And the TGI (RXF 393 renal)?
Its TGI is over 50 µM.

And the TGI (MDA-MB-231 breast)?
The TGI was over 50 µM.

And the TGI (OVCAR-3 ovarian)?
Its TGI is over 50 µM.

And the TGI (SW-620 colon)?
The TGI was over 50 µM.

What about the TGI (SF-539 CNS) of the same molecule?
The TGI was over 50 µM.

What about the TGI (EKVX NSCLC) of the same molecule?
Its TGI is over 50 µM.

And the TGI (DU-145 prostate)?
Its TGI is over 50 µM.

And the TGI (LOX IMVI melanoma)?
Its TGI is over 50 µM.

And the TGI (SK-MEL-5 melanoma)?
The TGI was over 50 µM.

And the TGI (PC-3 prostate)?
The TGI was over 50 µM.

And the TGI (T-47D breast)?
The TGI was over 50 µM.

And the TGI (MDA-MB-435)?
The TGI was over 50 µM.

And the TGI (OVCAR-4 ovarian)?
Its TGI is over 50 µM.

What about the TGI (M14 melanoma) of the same molecule?
The TGI was over 50 µM.

What about the TGI (SNB-19 CNS) of the same molecule?
Its TGI is over 50 µM.

What about the TGI (HCT-15 colon) of the same molecule?
The TGI was over 50 µM.

And the TGI (SN12C renal)?
Its TGI is over 50 µM.

What about the TGI (NCI-H522 lung) of the same molecule?
Its TGI is over 50 µM.

What about the TGI (COLO 205 colon) of the same molecule?
The TGI was over 50 µM.

What about the TGI (NCI/ADR-RES ovarian) of the same molecule?
The TGI was over 50 µM.

What about the TGI (ACHN renal) of the same molecule?
Its TGI is over 50 µM.

And the TGI (UACC-62 melanoma)?
The TGI was over 50 µM.

And the TGI (K-562 leukemia)?
The TGI was over 50 µM.

What about the TGI (UACC-257 melanoma) of the same molecule?
The TGI was over 50 µM.

What about the TGI (OVCAR-5 ovarian) of the same molecule?
The TGI was over 50 µM.

What about the TGI (786-0 renal) of the same molecule?
The TGI was over 50 µM.

What about the TGI (UO-31 renal) of the same molecule?
Its TGI is over 50 µM.

And the TGI (A498 renal)?
Its TGI is over 50 µM.

And the TGI (BT-549 breast)?
Its TGI is over 50 µM.

What about the TGI (MOLT-4 leukemia) of the same molecule?
Its TGI is over 50 µM.

What about the TGI (MCF7 breast) of the same molecule?
The TGI was over 50 µM.

And the TGI (SF-268 CNS)?
Its TGI is over 50 µM.

And the TGI (HS 578T breast)?
The TGI was over 50 µM.

What about the TGI (SF-295 CNS) of the same molecule?
The TGI was over 50 µM.

What about the TGI (NCI-H226 lung) of the same molecule?
The TGI was over 50 µM.

What about the TGI (HOP-62 NSCLC) of the same molecule?
The TGI was over 50 µM.

What about the TGI (IGROV1 ovarian) of the same molecule?
Its TGI is over 50 µM.

And the TGI (SK-MEL-2 melanoma)?
The TGI was over 50 µM.

And the TGI (NCI-H23 lung)?
Its TGI is over 50 µM.

Which TGI (KM12 colon) does the source give for `COC1(OC)C=CC2C1C1C=CC2C1(OC)OC` (centres undefined) here?
Its TGI is over 100 µM.

And the TGI (SR leukemia)?
The TGI was over 100 µM.

And the TGI (SK-MEL-28 melanoma)?
The TGI was over 100 µM.

What about the TGI (OVCAR-8 ovarian) of the same molecule?
Its TGI is over 100 µM.

And the TGI (TK-10 renal)?
Its TGI is over 100 µM.

What about the TGI (U251 CNS) of the same molecule?
Its TGI is over 100 µM.

And the TGI (HOP-92 NSCLC)?
Its TGI is over 100 µM.

What about the TGI (SNB-75 CNS) of the same molecule?
Its TGI is over 100 µM.

And the TGI (SK-OV-3 ovarian)?
The TGI was over 100 µM.

And the TGI (NCI-H460 lung)?
Its TGI is over 100 µM.

And the TGI (CCRF-CEM leukemia)?
The TGI was over 100 µM.

What about the TGI (CAKI-1 renal) of the same molecule?
The TGI was over 100 µM.

What about the TGI (HCC-2998 colon) of the same molecule?
Its TGI is over 100 µM.

What about the TGI (RPMI-8226 leukemia) of the same molecule?
The TGI was over 100 µM.

And the TGI (HCT-116 colon)?
The TGI was over 100 µM.

What about the TGI (RXF 393 renal) of the same molecule?
The TGI was over 100 µM.

What about the TGI (MDA-MB-231 breast) of the same molecule?
The TGI was over 100 µM.

And the TGI (OVCAR-3 ovarian)?
Its TGI is over 100 µM.

And the TGI (SW-620 colon)?
The TGI was over 100 µM.

What about the TGI (SF-539 CNS) of the same molecule?
Its TGI is over 100 µM.

What about the TGI (EKVX NSCLC) of the same molecule?
The TGI was over 100 µM.

What about the TGI (DU-145 prostate) of the same molecule?
Its TGI is over 100 µM.

And the TGI (LOX IMVI melanoma)?
Its TGI is over 100 µM.

And the TGI (SK-MEL-5 melanoma)?
The TGI was over 100 µM.

What about the TGI (PC-3 prostate) of the same molecule?
The TGI was over 100 µM.

And the TGI (T-47D breast)?
Its TGI is over 100 µM.

And the TGI (MDA-MB-435)?
Its TGI is over 100 µM.

And the TGI (OVCAR-4 ovarian)?
The TGI was over 100 µM.

And the TGI (HT29 colon)?
Its TGI is over 100 µM.

What about the TGI (M14 melanoma) of the same molecule?
The TGI was over 100 µM.

What about the TGI (SNB-19 CNS) of the same molecule?
Its TGI is over 100 µM.

What about the TGI (HCT-15 colon) of the same molecule?
Its TGI is over 100 µM.

What about the TGI (SN12C renal) of the same molecule?
Its TGI is over 100 µM.

What about the TGI (NCI-H522 lung) of the same molecule?
Its TGI is over 100 µM.

And the TGI (A549 NSCLC)?
The TGI was over 100 µM.

What about the TGI (COLO 205 colon) of the same molecule?
The TGI was over 100 µM.

What about the TGI (NCI/ADR-RES ovarian) of the same molecule?
The TGI was over 100 µM.

What about the TGI (ACHN renal) of the same molecule?
The TGI was over 100 µM.

What about the TGI (UACC-62 melanoma) of the same molecule?
The TGI was over 100 µM.

And the TGI (K-562 leukemia)?
The TGI was over 100 µM.

And the TGI (UACC-257 melanoma)?
The TGI was over 100 µM.

And the TGI (OVCAR-5 ovarian)?
Its TGI is over 100 µM.

And the TGI (786-0 renal)?
Its TGI is over 100 µM.

And the TGI (UO-31 renal)?
Its TGI is over 100 µM.

And the TGI (A498 renal)?
Its TGI is over 100 µM.

What about the TGI (MOLT-4 leukemia) of the same molecule?
The TGI was over 100 µM.

And the TGI (MCF7 breast)?
The TGI was over 100 µM.

What about the TGI (MALME-3M melanoma) of the same molecule?
Its TGI is over 100 µM.

What about the TGI (SF-268 CNS) of the same molecule?
The TGI was over 100 µM.

And the TGI (HS 578T breast)?
The TGI was over 100 µM.

What about the TGI (SF-295 CNS) of the same molecule?
Its TGI is over 100 µM.

What about the TGI (NCI-H226 lung) of the same molecule?
The TGI was over 100 µM.

And the TGI (HOP-62 NSCLC)?
The TGI was over 100 µM.

What about the TGI (IGROV1 ovarian) of the same molecule?
The TGI was over 100 µM.

What about the TGI (SK-MEL-2 melanoma) of the same molecule?
Its TGI is over 100 µM.

And the TGI (NCI-H23 lung)?
The TGI was over 100 µM.
